Data reported in patent US10597388B2, “Pyridazinone herbicides” (FMC CORPORATION, priority 2014, dated 2020).

What was measured:
Experiment in all cases: Test C greenhouse herbicide test, pre- and postemergence
Type in all cases: in vivo
[1] = system: morningglory (Ipomoea coccinea)
Summary of the method: (§1)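 Pre- and postemergence greenhouse screen; values are visual control ratings, 0 meaning no effect and 100 complete kill, assigned relative to untreated plants after 13 to 15 d.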

[2] = system: foxtail, giant (giant foxtail, Setaria faberii)
Summary of the method: as §1

[3] = system: lambsquarters (Chenopodium album)
Summary of the method: as §1

[4] = system: crabgrass, large (large crabgrass, Digitaria sanguinalis)
Summary of the method: as §1

[5] = system: corn (Zea mays)
Summary of the method: as §1

[6] = system: barnyardgrass (Echinochloa crus-galli)
Summary of the method: as §1

[7] = system: oilseed rape (Brassica napus)
Summary of the method: as §1

[8] = system: waterhemp (common waterhemp, Amaranthus rudis)
Summary of the method: as §1

[9] = system: pigweed (Amaranthus retroflexus)
Summary of the method: as §1

[10] = system: velvetleaf (Abutilon theophrasti)
Summary of the method: as §1

[11] = system: galium (catchweed bedstraw, Galium aparine)
Summary of the method: as §1

[12] = system: blackgrass (Alopecurus myosuroides)
Summary of the method: as §1

[13] = system: ragweed (common ragweed, Ambrosia elatior)
Summary of the method: as §1

[14] = system: ryegrass, Italian (Italian ryegrass, Lolium multiflorum)
Summary of the method: as §1

[15] = system: wheat (winter wheat, Triticum aestivum)
Summary of the method: as §1

[16] = Postemergence, 31 g ai/ha, scale 0 to 100 (0 no effect, 100 complete control)
[17] = Postemergence, 125 g ai/ha, scale 0 to 100, 0 is no effect, 100 is complete control
[18] = Postemergence, 250 g ai/ha, scale 0 to 100, 0 no effect, 100 complete control, 13 to 15 d
[19] = Preemergence, 31 g ai/ha, scale 0 to 100, 0 is no effect, 100 is complete control
[20] = Preemergence, 62 g ai/ha, scale 0 to 100, 0 is no effect, 100 is complete control
[21] = Preemergence, 125 g ai/ha, scale 0 to 100, 0 is no effect, 100 is complete control
[22] = Preemergence, 250 g ai/ha, scale 0 to 100, 0 no effect, 100 complete control
[23] = postemergence, 62 g ai/ha, scale 0 to 100, 0 no effect, 100 complete control

Compound: CCC(=O)Oc1c(C)nn(C)c(=O)c1-c1ccc(F)c2ccccc12 [Compound 113]
- Plant response rating, Morningglory [1, 16]: 98
- Plant response rating, Morningglory [1, 17]: 100
- Plant response rating, Morningglory [1, 18]: 100
- Plant response rating, Morningglory [1, 19]: 85
- Plant response rating, Morningglory [1, 20]: 95
- Plant response rating, Morningglory [1, 21]: 98
- Morningglory plant response rating [1, 22]: 100
- Plant response rating, Foxtail, Giant [2, 16]: 20
- Plant response rating, Foxtail, Giant [2, 17]: 30
- Plant response rating, Foxtail, Giant [2, 18]: 70
- Plant response rating, Lambsquarters [3, 16]: 98
- Plant response rating, Lambsquarters [3, 17]: 100
- Plant response rating, Lambsquarters [3, 18]: 100
- Plant response rating, Lambsquarters [3, 19]: 90
- Plant response rating, Lambsquarters [3, 20]: 85
- Plant response rating, Lambsquarters [3, 21]: 90
- Lambsquarters plant response rating [3, 22]: 100
- Plant response rating, Crabgrass, Large [4, 16]: 5
- Plant response rating, Crabgrass, Large [4, 17]: 25
- Plant response rating, Crabgrass, Large [4, 18]: 70
- Plant response rating, Crabgrass, Large [4, 19]: 0
- Plant response rating, Crabgrass, Large [4, 20]: 35
- Plant response rating, Crabgrass, Large [4, 21]: 75
- Crabgrass, Large plant response rating [4, 22]: 90
- Crabgrass, Large plant response rating [4, 23]: 15
- Plant response rating, Corn [5, 16]: 5
- Plant response rating, Corn [5, 17]: 10
- Plant response rating, Corn [5, 18]: 15
- Plant response rating, Corn [5, 19]: 0
- Plant response rating, Corn [5, 20]: 0
- Plant response rating, Corn [5, 21]: 20
- Corn plant response rating [5, 22]: 35
- Corn plant response rating [5, 23]: 10
- Plant response rating, Barnyardgrass [6, 16]: 25
- Plant response rating, Barnyardgrass [6, 17]: 35
- Plant response rating, Barnyardgrass [6, 18]: 45
- Plant response rating, Barnyardgrass [6, 19]: 10
- Plant response rating, Barnyardgrass [6, 20]: 35
- Plant response rating, Barnyardgrass [6, 21]: 65
- Barnyardgrass plant response rating [6, 22]: 95
- Barnyardgrass plant response rating [6, 23]: 35
- Plant response rating, Oilseed Rape [7, 16]: 0
- Plant response rating, Oilseed Rape [7, 17]: 0
- Plant response rating, Oilseed Rape [7, 18]: 0
- Plant response rating, Oilseed Rape [7, 19]: 0
- Plant response rating, Oilseed Rape [7, 20]: 0
- Plant response rating, Oilseed Rape [7, 21]: 60
- Oilseed Rape plant response rating [7, 22]: 90
- Plant response rating, Waterhemp [8, 16]: 85
- Plant response rating, Waterhemp [8, 17]: 90
- Plant response rating, Waterhemp [8, 18]: 100
- Plant response rating, Waterhemp [8, 19]: 85
- Plant response rating, Waterhemp [8, 20]: 100
- Plant response rating, Waterhemp [8, 21]: 98
- Waterhemp plant response rating [8, 22]: 98
- Plant response rating, Pigweed [9, 16]: 65
- Plant response rating, Pigweed [9, 17]: 95
- Plant response rating, Pigweed [9, 18]: 98
- Plant response rating, Pigweed [9, 19]: 70
- Plant response rating, Pigweed [9, 20]: 75
- Plant response rating, Pigweed [9, 21]: 100
- Pigweed plant response rating [9, 22]: 100
- Plant response rating, Velvetleaf [10, 16]: 70
- Plant response rating, Velvetleaf [10, 17]: 90
- Plant response rating, Velvetleaf [10, 18]: 98
- Plant response rating, Velvetleaf [10, 19]: 60
- Plant response rating, Velvetleaf [10, 20]: 95
- Plant response rating, Velvetleaf [10, 21]: 98
- Velvetleaf plant response rating [10, 22]: 100
- Plant response rating, Galium [11, 16]: 95
- Plant response rating, Galium [11, 17]: 95
- Plant response rating, Galium [11, 18]: 95
- Plant response rating, Galium [11, 19]: 100
- Plant response rating, Galium [11, 20]: 90
- Plant response rating, Galium [11, 21]: 98
- Galium plant response rating [11, 22]: 98
- Plant response rating, Blackgrass [12, 16]: 15
- Plant response rating, Blackgrass [12, 17]: 45
- Plant response rating, Blackgrass [12, 18]: 60
- Plant response rating, Blackgrass [12, 19]: 10
- Plant response rating, Blackgrass [12, 20]: 50
- Plant response rating, Blackgrass [12, 21]: 55
- Blackgrass plant response rating [12, 22]: 60
- Blackgrass plant response rating [12, 23]: 25
- Plant response rating, Ragweed [13, 16]: 90
- Plant response rating, Ragweed [13, 17]: 98
- Plant response rating, Ragweed [13, 18]: 100
- Plant response rating, Ragweed [13, 19]: 65
- Plant response rating, Ragweed [13, 20]: 95
- Plant response rating, Ragweed [13, 21]: 85
- Ragweed plant response rating [13, 22]: 95
- Plant response rating, Ryegrass, Italian [14, 16]: 90
- Plant response rating, Ryegrass, Italian [14, 17]: 95
- Plant response rating, Ryegrass, Italian [14, 18]: 95
- Plant response rating, Ryegrass, Italian [14, 19]: 95
- Plant response rating, Ryegrass, Italian [14, 20]: 95
- Plant response rating, Ryegrass, Italian [14, 21]: 90
- Ryegrass, Italian plant response rating [14, 22]: 95
- Plant response rating, Wheat [15, 16]: 5
- Plant response rating, Wheat [15, 17]: 5
- Plant response rating, Wheat [15, 18]: 15
- Plant response rating, Wheat [15, 19]: 0
- Plant response rating, Wheat [15, 20]: 30
- Plant response rating, Wheat [15, 21]: 35
- Wheat plant response rating [15, 22]: 50

Compound: Cc1nn(C)c(=O)c(-c2c(C)sc3ccc(C(F)(F)F)cc23)c1O [Compound 121]
- Plant response rating, Morningglory [1, 16]: 98
- Plant response rating, Morningglory [1, 17]: 100
- Plant response rating, Morningglory [1, 18]: 98
- Plant response rating, Morningglory [1, 19]: 25
- Plant response rating, Morningglory [1, 20]: 55
- Plant response rating, Morningglory [1, 21]: 85
- Morningglory plant response rating [1, 22]: 90
- Plant response rating, Foxtail, Giant [2, 16]: 20
- Plant response rating, Foxtail, Giant [2, 17]: 70
- Plant response rating, Foxtail, Giant [2, 18]: 85
- Plant response rating, Foxtail, Giant [2, 19]: 20
- Plant response rating, Foxtail, Giant [2, 20]: 55
- Plant response rating, Foxtail, Giant [2, 21]: 90
- Foxtail, Giant plant response rating [2, 22]: 95
- Plant response rating, Lambsquarters [3, 16]: 90
- Plant response rating, Lambsquarters [3, 17]: 98
- Plant response rating, Lambsquarters [3, 18]: 100
- Plant response rating, Lambsquarters [3, 19]: 60
- Plant response rating, Lambsquarters [3, 20]: 80
- Plant response rating, Lambsquarters [3, 21]: 98
- Lambsquarters plant response rating [3, 22]: 100
- Plant response rating, Crabgrass, Large [4, 16]: 10
- Plant response rating, Crabgrass, Large [4, 17]: 20
- Plant response rating, Crabgrass, Large [4, 18]: 40
- Plant response rating, Crabgrass, Large [4, 19]: 0
- Plant response rating, Crabgrass, Large [4, 20]: 10
- Plant response rating, Crabgrass, Large [4, 21]: 10
- Crabgrass, Large plant response rating [4, 22]: 35
- Crabgrass, Large plant response rating [4, 23]: 5
- Plant response rating, Corn [5, 16]: 0
- Plant response rating, Corn [5, 17]: 5
- Plant response rating, Corn [5, 18]: 5
- Plant response rating, Corn [5, 19]: 0
- Plant response rating, Corn [5, 20]: 0
- Plant response rating, Corn [5, 21]: 0
- Corn plant response rating [5, 22]: 5
- Corn plant response rating [5, 23]: 5
- Plant response rating, Barnyardgrass [6, 16]: 20
- Plant response rating, Barnyardgrass [6, 17]: 25
- Plant response rating, Barnyardgrass [6, 18]: 30
- Plant response rating, Barnyardgrass [6, 19]: 5
- Plant response rating, Barnyardgrass [6, 20]: 10
- Plant response rating, Barnyardgrass [6, 21]: 55
- Barnyardgrass plant response rating [6, 22]: 60
- Barnyardgrass plant response rating [6, 23]: 20
- Plant response rating, Oilseed Rape [7, 16]: 70
- Plant response rating, Oilseed Rape [7, 17]: 85
- Plant response rating, Oilseed Rape [7, 18]: 55
- Plant response rating, Oilseed Rape [7, 19]: 0
- Plant response rating, Oilseed Rape [7, 20]: 85
- Plant response rating, Oilseed Rape [7, 21]: 30
- Oilseed Rape plant response rating [7, 22]: 85
- Plant response rating, Waterhemp [8, 16]: 60
- Plant response rating, Waterhemp [8, 17]: 75
- Plant response rating, Waterhemp [8, 18]: 70
- Plant response rating, Waterhemp [8, 19]: 70
- Plant response rating, Waterhemp [8, 20]: 95
- Plant response rating, Waterhemp [8, 21]: 85
- Waterhemp plant response rating [8, 22]: 100
- Plant response rating, Pigweed [9, 16]: 75
- Plant response rating, Pigweed [9, 17]: 90
- Plant response rating, Pigweed [9, 18]: 98
- Plant response rating, Pigweed [9, 19]: 100
- Plant response rating, Pigweed [9, 20]: 98
- Plant response rating, Pigweed [9, 21]: 90
- Pigweed plant response rating [9, 22]: 100
- Plant response rating, Velvetleaf [10, 16]: 10
- Plant response rating, Velvetleaf [10, 17]: 75
- Plant response rating, Velvetleaf [10, 18]: 80
- Plant response rating, Velvetleaf [10, 19]: 60
- Plant response rating, Velvetleaf [10, 20]: 75
- Plant response rating, Velvetleaf [10, 21]: 85
- Velvetleaf plant response rating [10, 22]: 95
- Plant response rating, Galium [11, 16]: 90
- Plant response rating, Galium [11, 17]: 95
- Plant response rating, Galium [11, 18]: 95
- Plant response rating, Galium [11, 19]: 90
- Plant response rating, Galium [11, 20]: 90
- Plant response rating, Galium [11, 21]: 98
- Galium plant response rating [11, 22]: 100
- Plant response rating, Blackgrass [12, 16]: 0
- Plant response rating, Blackgrass [12, 17]: 15
- Plant response rating, Blackgrass [12, 18]: 50
- Plant response rating, Blackgrass [12, 19]: 10
- Plant response rating, Blackgrass [12, 20]: 45
- Plant response rating, Blackgrass [12, 21]: 45
- Blackgrass plant response rating [12, 22]: 60
- Blackgrass plant response rating [12, 23]: 15
- Plant response rating, Ragweed [13, 16]: 75
- Plant response rating, Ragweed [13, 17]: 95
- Plant response rating, Ragweed [13, 18]: 98
- Plant response rating, Ragweed [13, 19]: 35
- Plant response rating, Ragweed [13, 20]: 95
- Plant response rating, Ragweed [13, 21]: 98
- Ragweed plant response rating [13, 22]: 98
- Plant response rating, Ryegrass, Italian [14, 16]: 85
- Plant response rating, Ryegrass, Italian [14, 17]: 90
- Plant response rating, Ryegrass, Italian [14, 18]: 90
- Plant response rating, Ryegrass, Italian [14, 19]: 75
- Plant response rating, Ryegrass, Italian [14, 20]: 90
- Plant response rating, Ryegrass, Italian [14, 21]: 95
- Ryegrass, Italian plant response rating [14, 22]: 100
- Plant response rating, Wheat [15, 16]: 5
- Plant response rating, Wheat [15, 17]: 25
- Plant response rating, Wheat [15, 18]: 0
- Plant response rating, Wheat [15, 19]: 0
- Plant response rating, Wheat [15, 20]: 0
- Plant response rating, Wheat [15, 21]: 10
- Wheat plant response rating [15, 22]: 15
